Measured values: patent publication US9789102B2, “H3 receptor antagonist for use in the treatment of alzheimer's disease” (SANOFI, priority 2012, dated 2017)

Columns and labels:
Format in all cases: in vivo, THY-Tau22 mice
[1] = system: tau phosphorylation at the AT-8 epitope; assay: Western blot analysis of tau phosphorylation at AT-8 epitope after six months in food; details: 0.0034% in food, trend only, ns
[2] = system: protein tau hyperphosphorylation on AT-8 (pSer199-202/Thr205) epitope; assay: AT8 immunohistochemistry with quantitative image analysis after six months in food; details: for protein tau phosphorylation on AT-8 epitope in cortex, vs vehicle: n=9; for decrease of the number of AT8-positive neuronal cells, cortex: significant
Description: (§1) 2-(Cyclohexylmethyl)-N-{2-[(2S)-1-methylpyrrolidin-2-yl]ethyl}-1,2,3,4-tetrahydroisoquinoline-7-sulfonamide difumarate monohydrate was administrated as a supplement in food at doses of 0.00034%, 0.0034% and 0.034% for six months in THY-Tau22 and wild type mice as follows: • Tg Veh (n=17) • Tg Active Ingredient—0.034% (n=17) • Tg Active Ingredient—0.0034% (n=17) • Tg Active Ingredient—0.00034% (n=17) • WT Veh (n=17) • WT Active Ingredient—0.034% (n=17) • WT Active Ingredient—0.0034% (n=17) • WT Active Ingredient—0.00034% (n=17) • WT groups treated with Active Ingredient are not used in the biochemical and histological studies.
After mice were decapitated, brains were removed and one hemibrain (used for histopathological studies) was immersion-postfixed for seven days at 4° C. with 4% formaldehyde (Carlo Erba/code 415691). The other hemibrain was prepared for biochemical quantitative measurements.
Post-fixed hemibrains were incubated in phosphate-buffered saline (PBS, P 3813-10PAK, Sigma), transferred to a 20% sucrose solution (code 27480.294—Prolabo) for 48 hours at 4° C. to ensure good cryopreservation of tissues during subsequent freezing. For freezing, hemibrains were immersed for one minute in isopentane solution (Ref. No. 24872-323—Prolabo) cooled with dry ice to between −25° C. and −30° C. and then stored at −25° C.
The entire hemibrains were cut with a cryostat (Microm, HM560). Serial sagittal brain tissue sections were collected onto Superfrost plus microscope glass slides (VWR) and then stored at −20° C. (sections of 20 μm of thickness), or placed in PBS-sodium azide 0.1% (S-2002, Sigma) containing wells to avoid any contamination and stored at 4° C. (sections of 30 μm of thickness).
Hyperphosphorylated microtubule-associated protein tau is the major component of the paired helical filament. Phosphorylation-dependent anti-tau antibodies can be used to identify specific amino acids that are phosphorylated in tau from normal brain and AD brain. For example, the monoclonal antibody, AT8, is widely used. Antibody that can detect the phosphorylated serine 202 and the phosphorylated threonine 205 epitopes of phosphorylated tau (AT8 epitope (M. Goedert et al., Neuroscience Letters, (1995) 189, 3, pp. 167-169)).
An immunohistochemical protocol using the AT8 antibody and based upon the avidin-biotin horseradish peroxidase method was applied on 30 μm free-floating sections. The detailed protocol is as follows:
The following reagents are used: 0.1M PBS buffer in 1 liter of H2O (2.23 g of NaH2PO4, 2H2O (Prolabo Ref. No. 33 616.262), 29 g of Na2HPO4, 12 H2O (Prolabo Ref. No. 28 028.298), 9 g of NaCl (Prolabo Ref. No. 27 810.295)); PBS-Triton (0.15%) buffer Triton×100 (Sigma Ref. No. 23 479-9) (PBS-T) (1 l of 0.1M PBS buffer, 1.5 ml of Triton); 0.2M PBS buffer in 1 liter of H2O (4.46 g of NaH2PO4, 2H2O, 58 g of Na2HPO4, 12H2O, 18 g of NaCl); 30% H2O2 (Sigma Ref. No. H 1009); 3,3′-diaminobenzidine tetrahydrochloride (Sigma Ref. No. D9015, 100 mg stored at −20° C.); Vectastain® ABC Kit (Ref. No. PK 4000, Vector); BSA: bovine serum albumin (Sigma Ref. No. A8022).
Sections were preincubated for 3×10 minutes in 0.1 M-PBS-0.15% triton solution and then in 0.1M-PBS-1.5% hydrogen peroxide-50% methanol at room temperature for 30 minutes. After 3 washings in 0.1 M-PBS-0.15% triton, they were further incubated in blocking buffer [i.e., in BSA diluted at 10% in 0.01 M PBS] for 30 minutes. They were incubated at room temperature overnight with mouse anti-human PHF-Tau monoclonal antibody (clone AT8, Thermo Science, MN1020, dilution 1/500 in 0.1M PBS-0.05% Triton) and then with the secondary antibody (anti-mouse IgG biotinylated whole antibody from goat, Amersham, RPN1177, dilution 1/500 in 0.1M PBS-0.05% Triton) for 1 h 30. They were finally incubated in peroxidase-coupled avidin complex (Vectastain ABC kit, Vector Laboratories, dilution 1/400 in 0.1M PBS) for 30 minutes. […]

MIP-1α gene expression = assay: mRNA expression of MIP-1α in hippocampus by QPCR after six months in food
Description: as §1
1. […] To assess the quality and concentration of the total RNA, 1 μl was analyzed on an RNA LabChip (Agilent) using a 2100 Bioanalyser, (Agilent Technologies). […]
2 μg of total RNA from each mouse was reverse transcribed with oligo (dT)16 and random primers using a High-Capacity cDNA Archive Kit (Applied Biosystems), following the manufacturer recommendations. […] For real time PCR, the housekeeping gene R.L37A, was amplified using a quantitect primer assay from Qiagen (QT00252266) and MIP1 alpha was amplified using the following primers (5′-[…]-3′) SEQ ID NO: 1; (5′-[…]-3′) SEQ ID NO: 2. […]

Structure (SMILES): CN1CCC[C@H]1CCNS(=O)(=O)c1ccc2c(c1)CN(CC1CCCCC1)CC2 [2-(cyclohexylmethyl)-N-{2-[(2S)-1-methylpyrrolidin-2-yl]ethyl}-1,2,3,4-tetrahydroisoquinoline-7-sulfonamide difumarate monohydrate]
- inhibition of tau phosphorylation at the AT-8 epitope, hippocampus [1]: −22%
- protein tau phosphorylation on AT-8 epitope in cortex, vs vehicle ([2]; 0.0034% in food, six months): statistical significant decrease
- intensity of AT8-immunostaining within neuronal cell bodies and fibers, cortex ([2]; 0.0034% in food, six months, qualitatively observed): decrease
- decrease of the number of AT8-positive neuronal cells, cortex ([2]; 0.0034% in food, six months): −47%
- protein tau phosphorylation on AT-8 epitope in cortex, vs vehicle ([2]; 0.034% in food, six months): statistical significant decrease
- decrease of the number of AT8-positive neuronal cells, cortex ([2]; 0.034% in food, six months): −32%
- AT8-positive neuronal cell number in other ROIs (amygdala, CA1 and dentate gyrus hippocampal subareas) ([2]; six months in food): No significant decrease
- MIP-1α gene expression in hippocampus, vs vehicle (MIP-1α gene expression; 0.00034% in food): statistical significant decrease
- MIP-1α gene expression in hippocampus, vs vehicle (MIP-1α gene expression; 0.0034% in food): statistical significant decrease
